Tests used:
Type in all cases: physicochemical
[1] = Photostability of octyltriazone in the presence of butylmethoxydibenzoylmethane in Support 2 formulations, xenon lamp exposure, UV spectrometry (Example 2); details: Support 2, 0.5% butylmethoxydibenzoylmethane + 1.5% Uvinul T150, X = 0% by weight (no stabilizer)
Protocol: (§1) The photostability of octyltriazone in the presence of butylmethoxydibenzoylmethane was examined on several formulations in which the amount of 1,1,1-tris(2-methyl-4-hydroxy-5-tert-butylphenyl)butane (X) was varied. The support common to these formulations was as follows: [table] For each formula, 3 test samples and 3 control samples were prepared. 2 mg/cm^2 of formula were deposited by spatula onto polymethyl methacrylate plates. […], to a Sun Test Heraus machine equipped with a xenon lamp and having as UV-A illumination: 3.02×10^−3 W/cm^2, and as UV-B illumination: 2.1×10^−4 W/cm^2, and the control plates were maintained for the same time and at the same temperature (38-40° C.) in darkness. After this time, the screening agents were extracted by immersing each plate in 50 g of ethanol and subjecting them to ultrasound for 15 minutes to ensure good extraction. The solutions obtained were analyzed by UV spectrometry. For each test formula, the amount of residual butylmethoxydibenzoylmethane and the residual amount of octyltriazone after exposure is given as the ratio of each respective optical density (OD) in the exposed sample to the unexposed optical density (OD) corresponding to each filter. The machine was set at the maximum absorption corresponding to each filter: Octyltriazone: λmax=312 nm

[2] = Photostability of butylmethoxydibenzoylmethane in Support 1 formulations, xenon lamp exposure, UV spectrometry (Example 1); details: Support 1, 2% butylmethoxydibenzoylmethane, X = 0% by weight (no 1,1,1-tris(2-methyl-4-hydroxy-5-tert-butylphenyl)butane); ratio of exposed to unexposed OD
Protocol: The photostability of the dibenzoylmethane compound was evaluated on several formulations in which the amount of 1,1,1-tris(2-methyl-4-hydroxy-5-tert-butylphenyl)butane (X) was varied. The support common to these formulations was as follows: [table] For each formula, 3 test samples and 3 control samples were prepared. 2 mg/cm^2 of formula were deposited by spatula onto polymethyl methacrylate plates. […], to a Sun Test Heraus machine equipped with a xenon lamp and having as UV-A illumination: 3.02×10^−3 W/cm^2, and as UV-B illumination: 2.1×10^−4 W/cm^2, and the control plates were maintained for the same time and at the same temperature (38-40° C.) in darkness. After this time, the screening agents were extracted by immersing each plate in 50 g of ethanol and subjecting them to ultrasound for 15 minutes to ensure good extraction. The solutions obtained were analyzed by UV spectrometry. For each test formula, the amount of residual butylmethoxydibenzoylmethane after exposure is given as the ratio of its optical density (OD) in the exposed sample to its unexposed optical density (OD). […]

[3] = Photostability of butylmethoxydibenzoylmethane in Support 2 formulations containing octyltriazone, xenon lamp exposure, UV spectrometry (Example 2); details: Support 2, 0.5% butylmethoxydibenzoylmethane + 1.5% Uvinul T150, X = 0% by weight (no stabilizer)
Protocol: as §1, with “Butylmethoxydibenzoylmethane: λmax=358” for “Octyltriazone: λmax=312”

SMILES | Residual OD of the triazine at 312 nm after 1 hour of UVA irradiation [1] [%] | Residual OD at 358 nm after 1 hour of UVA irradiation [2] [%] | Residual OD of the dibenzoylmethane at 358 nm after 1 hour of UVA irradiation [3] [%]
CCCCC(CC)COC(=O)c1ccc(Nc2nc(Nc3ccc(C(=O)OCC(CC)CCCC)cc3)nc(Nc3ccc(C(=O)OCC(CC)CCCC)cc3)n2)cc1 (stereo not drawn) [octyltriazone, 2,4,6-tris[p-(2′-ethylhexyl-1′-oxycarbonyl)anilino]-1,3,5-triazine] | 87 ± 13 |  | 
COc1ccc(C(=O)CC(=O)c2ccc(C(C)(C)C)cc2)cc1 [butylmethoxydibenzoylmethane, 4-(tert-butyl)-4′-methoxydibenzoylmethane] |  | 11 ± 1 | 32 ± 4
